# What was measured:
# [1] = target: Dihydroorotate dehydrogenase (quinone), mitochondrial (Mus musculus, UniProt O35435); assay: Inhibitory concentration tested on enzyme dihydroorotate dehydrogenase in mouse
# [2] = target: Dihydroorotate dehydrogenase (quinone), mitochondrial (Rattus norvegicus, UniProt Q63707); assay: Inhibitory concentration tested against enzyme dihydroorotate dehydrogenase in rat
# Sequence of Dihydroorotate dehydrogenase (quinone), mitochondrial (Rattus norvegicus, UniProt Q63707) (Q63707 whole entry): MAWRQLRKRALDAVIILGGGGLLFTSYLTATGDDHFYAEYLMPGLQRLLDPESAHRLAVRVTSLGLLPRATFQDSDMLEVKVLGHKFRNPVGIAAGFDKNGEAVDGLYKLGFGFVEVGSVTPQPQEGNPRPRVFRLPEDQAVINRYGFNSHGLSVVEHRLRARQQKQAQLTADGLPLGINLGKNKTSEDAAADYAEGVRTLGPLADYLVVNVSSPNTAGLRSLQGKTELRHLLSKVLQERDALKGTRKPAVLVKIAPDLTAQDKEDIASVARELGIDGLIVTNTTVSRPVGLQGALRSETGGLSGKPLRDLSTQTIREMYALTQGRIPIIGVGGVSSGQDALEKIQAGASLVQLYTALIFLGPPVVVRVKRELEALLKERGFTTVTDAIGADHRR
# Sequence of Dihydroorotate dehydrogenase (quinone), mitochondrial (Mus musculus, UniProt O35435) (O35435 whole entry): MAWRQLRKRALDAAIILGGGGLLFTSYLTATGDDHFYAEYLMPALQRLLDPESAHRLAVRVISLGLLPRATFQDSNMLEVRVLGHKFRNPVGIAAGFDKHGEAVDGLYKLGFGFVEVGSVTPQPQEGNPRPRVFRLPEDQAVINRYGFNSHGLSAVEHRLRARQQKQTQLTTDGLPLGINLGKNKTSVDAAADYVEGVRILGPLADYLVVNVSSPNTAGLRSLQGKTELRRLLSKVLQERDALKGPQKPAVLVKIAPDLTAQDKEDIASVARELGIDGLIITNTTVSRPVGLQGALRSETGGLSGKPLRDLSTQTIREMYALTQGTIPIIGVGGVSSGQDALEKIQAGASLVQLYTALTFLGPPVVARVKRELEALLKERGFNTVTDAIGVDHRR
Structure (SMILES),IC50 [1],IC50 [2]
CC=CC(=O)C(C#N)C(=O)Nc1ccc(C(F)(F)F)cc1 (centres undefined),0.063 µM,
"N#CC(C(=O)Nc1ccc(C(F)(F)F)cc1)C(=O)c1ccc(C(F)(F)F)cc1 (centres undefined) [2-Cyano-3-hydroxy-3,N-bis-(4-trifluoromethyl-phenyl)-acrylamide]",> 100 µM,> 100 µM
N#CC(C(=O)Nc1ccccc1C(F)(F)F)C(=O)C1CC1 (centres undefined) [(Z)-2-Cyano-3-cyclopropyl-3-hydroxy-N-(2-trifluoromethyl-phenyl)-acrylamide],> 100 µM,> 100 µM

# More lines, now with the values ahead:
IC50 [1],IC50 [2],Structure (SMILES)
> 100 µM,> 100 µM,CN1CCCC1C(=O)C(C#N)C(=O)Nc1ccc(C(F)(F)F)cc1 (centres undefined) [(Z)-2-Cyano-3-hydroxy-3-(1-methyl-pyrrolidin-2-yl)-N-(4-trifluoromethyl-phenyl)-acrylamide]
> 100 µM,> 100 µM,N#CC(C(=O)Nc1ccc(C(F)(F)F)cc1)C(=O)C1CCCN1 (centres undefined) [(Z)-2-Cyano-3-hydroxy-3-pyrrolidin-2-yl-N-(4-trifluoromethyl-phenyl)-acrylamide]

# — BindingDB's records for doi:10.1021/jm9604437 (Hoechst Marion Roussel, 1996)
